The NIST ThermoML archive (doi:10.1021/acs.jced.8b00725)
± gives the expanded uncertainty stated by the source.

Settings: 100 kPa, Liquid, Vibrating tube method

SMILES	mass density (293.15 K) [kg/m3]	mass density (298.15 K) [kg/m3]	mass density (303.15 K) [kg/m3]	mass density (308.15 K) [kg/m3]	mass density (313.15 K) [kg/m3]	mass density (318.15 K) [kg/m3]	mass density (323.15 K) [kg/m3]	mass density (328.15 K) [kg/m3]	mass density (333.15 K) [kg/m3]	mass density (338.15 K) [kg/m3]	mass density (343.15 K) [kg/m3]	mass density (348.15 K) [kg/m3]	mass density (353.15 K) [kg/m3]
CC[NH+](C)C.O=C([O-])C(F)(F)F [N,N-dimethyl-N-ethylammonium trifluoroacetate]	1212.41 ± 10	1208.11 ± 10	1203.82 ± 10	1199.56 ± 10	1195.28 ± 10	1191.03 ± 10	1186.78 ± 9.9	1182.54 ± 9.8	1178.33 ± 9.8	1174.09 ± 9.7	1169.9 ± 9.6	1165.69 ± 9.5	1161.51 ± 9.5
CC[NH2+]CC.O=S(=O)([O-])O [diethylammonium hydrogen sulfate]	1382.76 ± 13	1379.53 ± 13	1376.33 ± 13	1373.15 ± 13	1369.99 ± 13	1366.85 ± 13	1363.73 ± 13	1360.62 ± 13	1357.53 ± 13	1354.45 ± 13	1351.38 ± 13	1348.31 ± 13	1345.25 ± 13
CC[NH2+]CC.CS(=O)(=O)[O-] [diethylammonium methanesulfonate]	–	–	–	–	–	–	–	–	1117.5 ± 8.8	1114.27 ± 8.7	1111.06 ± 8.7	1107.86 ± 8.6	1104.68 ± 8.5
CC[NH2+]CC.O=C([O-])C(F)(F)F [diethylammonium trifluoroacetate]	–	–	–	–	–	–	1158.82 ± 9.4	1154.74 ± 9.3	1150.69 ± 9.3	1146.65 ± 9.2	1142.62 ± 9.2	1138.55 ± 9.1	1134.5 ± 9
O=S(=O)(O)O.OCCN(CCO)CCO [triethanolammonium hydrogen sulfate]	–	–	–	–	–	–	1421.3 ± 14	1418.8 ± 14	1416.33 ± 14	1413.85 ± 14	1411.31 ± 14	1408.87 ± 14	1406.37 ± 14
CCC(=O)[O-].OCC[NH+](CCO)CCO [triethanolammonium propanoate]	1139.53 ± 7	1136.51 ± 7	1133.47 ± 7	1130.43 ± 6.9	1127.31 ± 6.9	1124.25 ± 6.9	1121.15 ± 6.8	1118.01 ± 6.8	1114.84 ± 6.7	1111.68 ± 6.7	1108.5 ± 6.7	1105.29 ± 6.6	1102.06 ± 6.6
O=C(O)c1ccccc1O.OCCN(CCO)CCO [triethanolammonium salicylate]	–	–	–	–	–	–	–	1248.43 ± 11	1245.42 ± 11	1242.4 ± 11	1239.42 ± 11	1236.44 ± 11	1233.42 ± 11
CC(=O)O.CCN(CC)CC [triethylammonium acetate]	1013.29 ± 7.2	1009.63 ± 7.1	1005.87 ± 7	1002.1 ± 7	998.33 ± 6.9	994.55 ± 6.9	990.75 ± 6.8	986.96 ± 6.8	983.14 ± 6.7	979.32 ± 6.7	975.48 ± 6.6	971.62 ± 6.6	967.74 ± 6.5
CC[NH+](CC)CC.O=C([O-])c1ccccc1 [triethylammonium benzoate]	1101.47 ± 8.5	1098.02 ± 8.4	1094.65 ± 8.4	1091.27 ± 8.3	1087.87 ± 8.3	1084.47 ± 8.2	1081.07 ± 8.2	1077.68 ± 8.1	1074.3 ± 8.1	1070.92 ± 8	1067.55 ± 8	1064.18 ± 7.9	1060.82 ± 7.9
CCN(CC)CC.O=P(O)(O)O [triethylammonium dihydrogen phosphate]	–	–	–	–	–	–	–	–	–	1329.48 ± 12	1327.08 ± 12	1324.69 ± 12	1322.31 ± 12
CC[NH+](CC)CC.CS(=O)(=O)[O-] [triethylammonium methanesulfonate]	1120.47 ± 8.8	1117.11 ± 8.7	1113.77 ± 8.7	1110.44 ± 8.6	1107.13 ± 8.6	1103.83 ± 8.5	1100.54 ± 8.5	1097.26 ± 8.4	1093.99 ± 8.4	1090.72 ± 8.3	1087.47 ± 8.3	1084.22 ± 8.2	1080.98 ± 8.2
CCN(CC)CC.O=C(O)c1ccccc1O [triethylammonium salicylate]	1099.07 ± 8.5	1095.79 ± 8.4	1092.57 ± 8.3	1089.33 ± 8.3	1086.08 ± 8.2	1082.83 ± 8.2	1079.58 ± 8.2	1076.35 ± 8.1	1073.13 ± 8.1	1069.93 ± 8	1066.73 ± 8	1063.54 ± 7.9	1060.36 ± 7.9
CC[NH+](CC)CC.O=C([O-])C(F)(F)F [triethylammonium trifluoroacetate]	1165.69 ± 9.5	1161.57 ± 9.5	1157.44 ± 9.4	1153.32 ± 9.3	1149.21 ± 9.3	1145.1 ± 9.2	1141 ± 9.1	1136.91 ± 9.1	1132.82 ± 9	1128.74 ± 8.9	1124.67 ± 8.9	1120.6 ± 8.8	1116.54 ± 8.7
CC[NH+](CC)CC.O=S(=O)([O-])C(F)(F)F [triethylammonium trifluoromethanesulfonate]	1268.63 ± 11	1264.56 ± 11	1260.51 ± 11	1256.47 ± 11	1252.45 ± 11	1248.45 ± 11	1244.46 ± 11	1240.48 ± 11	1236.53 ± 11	1232.58 ± 11	1228.65 ± 11	1224.73 ± 11	1220.84 ± 10
